Experimental data: patent publication US7265152B2 (ViroPharma Incorporated, priority 2002, dated 2007)

Tests used:
[1] = tested on: HCV replicon (BB7 sequence) in Huh-7-Clone A cells; test: HCV replicon assay: ELISA of NS5A protein in replicon-containing cells (Inhibition of Viral RNA Replication); type: cell-based; details: Hepatitis C virus; HCV replicon assay; ranges of EC50; read-out: Replicon
Procedure, shortened: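 Huh-7-Clone A cells carrying subgenomic BB7 HCV replicon (G418-selectable) incubated 72 h with compound. NS5A protein quantified by cell ELISA: glutaraldehyde fixation, anti-NS5A monoclonal plus HRP secondary, TMB read at OD 650 nm. EC50 derived from 8-point serial dilution dose curve.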

HCV NS5B = biological target: T1, HCV NS5B (Hepatitis C virus genotype 1b, UniProt Q9WMX2); test: Inhibition of viral RNA-dependent RNA polymerase (RdRp), in vitro biochemical assay; design: species or system HCV genotype 1b virus (BB7); details: HCV NS5B RdRp, BB7; class symbols A-D; read-out: HCV pol-BB7 IC50
T1 construct: fusion protein, of which the carboxyl terminal 21 amino acids were removed to enhance its solubility; His tag (GSHHHHHH); made in house; host or cells: E. coli
Procedure, shortened: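 Purified recombinant NS5B from a genotype 1b consensus (BB7), His-tagged, E. coli-expressed, with the C-terminal 21 residues deleted. Inhibition of RdRp activity in vitro was measured, and IC50 is the concentration giving 50% inhibition.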

SMILES | EC50 [1] [nM] | IC50 (HCV NS5B) [nM]
CNC(=O)c1c(-c2ccc(F)cc2)oc2cc(N3CCOCC3)c(OCc3cccc(C(=O)OC)c3)cc12 [Example 263, 3-[2-(4-Fluoro-phenyl)-3-methylcarbamoyl-6-morpholin-4-yl-benzofuran-5-yloxymethyl]-benzoic acid methyl ester] | < 10000 | ≤ 500
CNC(=O)c1c(-c2ccc(F)cc2)oc2cc(-c3c(C)nn(C)c3C)c(OC(C)C)cc12 [Example 264, 2-(4-Fluoro-phenyl)-5-isopropoxy-6-(1,3,5-trimethyl-1H-pyrazol-4-yl)-benzofuran-3-carboxylic acid methylamide] | < 10000 | 500 to 5000
CNC(=O)c1c(-c2ccc(F)cc2)oc2cc(C3CCCN3)c(OC(C)C)cc12 (centres unmarked) [Example 265, 2-(4-Fluoro-phenyl)-5-isopropoxy-6-pyrrolidin-2-yl-benzofuran-3-carboxylic acid methylamide] | > 30000 | 5000 to 30000
CNC(=O)c1c(-c2ccc(F)cc2)oc2cc(C#N)c(OC)cc12 [Example 266, 6-Cyano-2-(4-fluoro-phenyl)-5-methoxy-benzofuran-3-carboxylic acid methylamide] | < 1000 | ≤ 500
CNC(=O)c1c(-c2ccc(F)cc2)oc2cc(N3CCOCC3)c(OCc3ccc(C(=O)O)cc3)cc12 [Example 267, 4-[2-(4-Fluoro-phenyl)-3-methylcarbamoyl-6-morpholin-4-yl-benzofuran-5-yloxymethyl]-benzoic acid] | < 10000 | ≤ 500
CNC(=O)c1c(-c2ccc(F)cc2)oc2cc(N3CCOCC3)c(OCc3cccc(C(=O)O)c3)cc12 [Example 268, 3-[2-(4-Fluoro-phenyl)-3-methylcarbamoyl-6-morpholin-4-yl-benzofuran-5-yloxymethyl]-benzoic acid] | < 10000 | ≤ 500
CNC(=O)c1c(-c2ccc(F)cc2)oc2cc(N(Cc3nnnn3C)S(C)(=O)=O)c(OC(C)C)cc12 [Example 269, 2-(4-Fluoro-phenyl)-5-isopropoxy-6-[methanesulfonyl-(1-methyl-1H-tetrazol-5-ylmethyl)-amino]-benzofuran-3-carboxylic acid methylamide] | < 1000 | ≤ 500
CNC(=O)c1c(-c2ccc(F)cc2)oc2cc(N(Cc3ccc(C(=O)OC)cc3)S(C)(=O)=O)c(OC(C)C)cc12 [Example 270, 4-({[2-(4-Fluoro-phenyl)-5-isopropoxy-3-methylcarbamoyl-benzofuran-6-yl]-methanesulfonyl-amino}-methyl)-benzoic acid methyl ester] | < 1000 | ≤ 500
CNC(=O)c1c(-c2ccc(F)cc2)oc2cc(N(Cc3csc(C)n3)S(C)(=O)=O)c(OC(C)C)cc12 [Example 271, 2-(4-Fluoro-phenyl)-5-isopropoxy-6-[methanesulfonyl-(2-methyl-thiazol-4-ylmethyl)-amino]-benzofuran-3-carboxylic acid methylamide] | < 10000 | ≤ 500
CNC(=O)c1c(-c2ccc(F)cc2)oc2cc(N(Cc3ccc(C(=O)O)cc3)S(C)(=O)=O)c(OC(C)C)cc12 [Example 272, 4-({[2-(4-Fluoro-phenyl)-5-isopropoxy-3-methylcarbamoyl-benzofuran-6-yl]-methanesulfonyl-amino}-methyl)-benzoic acid] | ≤ 1000 | ≤ 500
CNC(=O)c1c(-c2ccc(F)cc2)oc2cc(-c3cc(COC)on3)c(OC(C)C)cc12 [Example 273, 2-(4-Fluoro-phenyl)-5-isopropoxy-6-(5-methoxymethyl-isoxazol-3-yl)-benzofuran-3-carboxylic acid methylamide] | < 1000 | ≤ 500
CNC(=O)c1c(-c2ccc(F)cc2)oc2cc(-c3cc(C4CC4)on3)c(OC(C)C)cc12 [Example 274, 6-(5-Cyclopropyl-isoxazol-3-yl)-2-(4-fluoro-phenyl)-5-isopropoxy-benzofuran-3-carboxylic acid methylamide] | < 1000 | ≤ 500
CNC(=O)c1c(-c2ccc(F)cc2)oc2cc(C3CCCN3S(C)(=O)=O)c(OC(C)C)cc12 (centres unmarked) [Example 275, 2-(4-Fluoro-phenyl)-5-isopropoxy-6-(1-methanesulfonyl-pyrrolidin-2-yl)-benzofuran-3-carboxylic acid methylamide] | < 1000 | ≤ 500
CNC(=O)c1c(-c2ccc(F)cc2)oc2cc(C(C)=O)c(O)cc12 [Example 276, 6-Acetyl-2-(4-fluoro-phenyl)-5-hydroxy-benzofuran-3-carboxylic acid methylamide] | < 10000 | 500 to 5000
CCN(c1cc2oc(-c3ccc(F)cc3)c(C(=O)NC)c2cc1OC)S(C)(=O)=O [Example 277, 6-(Ethyl-methanesulfonyl-amino)-2-(4-fluoro-phenyl)-5-methoxy-benzofuran-3-carboxylic acid methylamide] | < 1000 | ≤ 500
CNC(=O)c1c(-c2ccc(F)cc2)oc2cc(C3CNC(=O)C3C(=O)NC)c(OC)cc12 (centres unmarked) [Example 278, 4-[2-(4-Fluoro-phenyl)-5-methoxy-3-methylcarbamoyl-benzofuran-6-yl]-2-oxo-pyrrolidine-3-carboxylic acid methylamide] | < 10000 | ≤ 500
CNC(=O)c1c(-c2ccc(F)cc2)oc2cc(-c3nnc[nH]3)c(OC(C)C)cc12 [Example 279, 2-(4-Fluoro-phenyl)-5-isopropoxy-6-(4H-[1,2,4]triazol-3-yl)-benzofuran-3-carboxylic acid methylamide] | < 30000 | ≤ 500
CNC(=O)c1c(-c2ccc(F)cc2)oc2cc(-c3c(C)noc3COC)c(OC)cc12 [Example 280, 2-(4-Fluoro-phenyl)-5-methoxy-6-(5-methoxymethyl-3-methyl-isoxazol-4-yl)-benzofuran-3-carboxylic acid methylamide] | < 1000 | ≤ 500
CNC(=O)c1c(-c2ccc(F)cc2)oc2cc(N(Cc3ccc(OC)cc3)S(C)(=O)=O)c(OC(C)C)cc12 [Example 281, 2-(4-Fluoro-phenyl)-5-isopropoxy-6-[methanesulfonyl-(4-methoxy-benzyl)-amino]-benzofuran-3-carboxylic acid methylamide] | < 1000 | ≤ 500
CNC(=O)c1c(-c2ccc(F)cc2)oc2cc(N(Cc3cc(C)on3)S(C)(=O)=O)c(OC(C)C)cc12 [Example 282, 2-(4-Fluoro-phenyl)-5-isopropoxy-6-[methanesulfonyl-(5-methyl-isoxazol-3-ylmethyl)-amino]-benzofuran-3-carboxylic acid methylamide] | < 1000 | ≤ 500
CNC(=O)c1c(-c2ccc(F)cc2)oc2cc(-c3cc(C)on3)c(OC(C)C)cc12 [Example 283, 2-(4-Fluoro-phenyl)-5-isopropoxy-6-(5-methyl-isoxazol-3-yl)-benzofuran-3-carboxylic acid methylamide] | < 1000 | ≤ 500
CNC(=O)c1c(-c2ccc(F)cc2)oc2cc(N(Cc3c(C)noc3C)S(C)(=O)=O)c(OC(C)C)cc12 [Example 284, 6-[(3,5-Dimethyl-isoxazol-4-ylmethyl)-methanesulfonyl-amino]-2-(4-fluoro-phenyl)-5-isopropoxy-benzofuran-3-carboxylic acid methylamide] | < 10000 | ≤ 500
